In patent publication US11235022B2, “Methods of diagnosis, selection, and treatment of diseases and conditions caused by or associated with methanogens” (Cedars-Sinai Medical Center, priority 2013, dated 2022):

Tests used:
[1] = test system: small bowel motility / small intestinal transit; conditions: cited from earlier work
[2] = test system: methane on breath testing; constipation symptoms; conditions: retrospective study; 10 days; cited from earlier work
[3] = Example 4A: glucose tolerance test and cholesterol before and after antibiotic in single patients; type: in vivo, human
Experimental: After an administration of rifaximin at 550 mg, three times a day, the peak glucose was 161 mg/dL. Cholesterol for the same patient was 200 and then 171 after treatment. […] After an administration of neomycin at 500 mg, twice daily, the peak glucose was 121. Cholesterol was 202 before the treatment and was down to 178 after treatment.

[4] = test system: methane producers with constipation predominant IBS; conditions: placebo 5.0±5.1%; cited from earlier work

Molecule | reduction of proximal small bowel motility (average) ([1]; 5 dogs, methane infused through mid-small bowel fistula) | slowing of small intestinal transit ([1]; in vivo animal study, infusion of methane into the small intestine) | reduction in constipation symptoms [2] | reduction in methane [2] | cholesterol after treatment ([3]; Patient 1, rifaximin 550 mg three times a day, 200 before) | peak glucose on glucose tolerance test after treatment ([3]; Patient 1, rifaximin 550 mg three times a day, 260 before antibiotics) | peak glucose on glucose tolerance test after treatment ([3]; Patient 2, neomycin 500 mg twice daily, 154 before antibiotics) | cholesterol after treatment ([3]; Patient 2, neomycin 500 mg twice daily, 202 before) | improvement in constipation [4]
C [methane] | 59% | 59% |  |  |  |  |  |  | 
CO[C@H]1/C=C/O[C@@]2(C)Oc3c(C)c(O)c4c(O)c(c5c(nc6cc(C)ccn65)c4c3C2=O)NC(=O)/C(C)=C\C=C\[C@H](C)[C@H](O)[C@@H](C)[C@@H](O)[C@@H](C)[C@H](OC(C)=O)[C@@H]1C [rifaximin] |  |  | 56% | 28% | 171 | 161 mg/dL |  |  | 
neomycin |  |  | 63% | 33% |  |  | 121 | 178 | 44.0±12.3%
